Test results published in patent US9181273B2, “Morpholine-spirocyclic piperidine amides as modulators of ion channels” (Vertex Pharmaceuticals Incorporated, priority 2011, dated 2015).

The compounds below were run against human NaV subtype, like NaV 1.7 (Homo sapiens, UniProt Q15858) (assay: E-VIPR optical membrane potential assay with electrical stimulation). Conditions: active against one or more sodium channels; assay and NaV subtype not specified for Table 3; read-out: IC50 Binned Activity Data.
human NaV subtype, like NaV 1.7, sequence (Q15858 whole entry): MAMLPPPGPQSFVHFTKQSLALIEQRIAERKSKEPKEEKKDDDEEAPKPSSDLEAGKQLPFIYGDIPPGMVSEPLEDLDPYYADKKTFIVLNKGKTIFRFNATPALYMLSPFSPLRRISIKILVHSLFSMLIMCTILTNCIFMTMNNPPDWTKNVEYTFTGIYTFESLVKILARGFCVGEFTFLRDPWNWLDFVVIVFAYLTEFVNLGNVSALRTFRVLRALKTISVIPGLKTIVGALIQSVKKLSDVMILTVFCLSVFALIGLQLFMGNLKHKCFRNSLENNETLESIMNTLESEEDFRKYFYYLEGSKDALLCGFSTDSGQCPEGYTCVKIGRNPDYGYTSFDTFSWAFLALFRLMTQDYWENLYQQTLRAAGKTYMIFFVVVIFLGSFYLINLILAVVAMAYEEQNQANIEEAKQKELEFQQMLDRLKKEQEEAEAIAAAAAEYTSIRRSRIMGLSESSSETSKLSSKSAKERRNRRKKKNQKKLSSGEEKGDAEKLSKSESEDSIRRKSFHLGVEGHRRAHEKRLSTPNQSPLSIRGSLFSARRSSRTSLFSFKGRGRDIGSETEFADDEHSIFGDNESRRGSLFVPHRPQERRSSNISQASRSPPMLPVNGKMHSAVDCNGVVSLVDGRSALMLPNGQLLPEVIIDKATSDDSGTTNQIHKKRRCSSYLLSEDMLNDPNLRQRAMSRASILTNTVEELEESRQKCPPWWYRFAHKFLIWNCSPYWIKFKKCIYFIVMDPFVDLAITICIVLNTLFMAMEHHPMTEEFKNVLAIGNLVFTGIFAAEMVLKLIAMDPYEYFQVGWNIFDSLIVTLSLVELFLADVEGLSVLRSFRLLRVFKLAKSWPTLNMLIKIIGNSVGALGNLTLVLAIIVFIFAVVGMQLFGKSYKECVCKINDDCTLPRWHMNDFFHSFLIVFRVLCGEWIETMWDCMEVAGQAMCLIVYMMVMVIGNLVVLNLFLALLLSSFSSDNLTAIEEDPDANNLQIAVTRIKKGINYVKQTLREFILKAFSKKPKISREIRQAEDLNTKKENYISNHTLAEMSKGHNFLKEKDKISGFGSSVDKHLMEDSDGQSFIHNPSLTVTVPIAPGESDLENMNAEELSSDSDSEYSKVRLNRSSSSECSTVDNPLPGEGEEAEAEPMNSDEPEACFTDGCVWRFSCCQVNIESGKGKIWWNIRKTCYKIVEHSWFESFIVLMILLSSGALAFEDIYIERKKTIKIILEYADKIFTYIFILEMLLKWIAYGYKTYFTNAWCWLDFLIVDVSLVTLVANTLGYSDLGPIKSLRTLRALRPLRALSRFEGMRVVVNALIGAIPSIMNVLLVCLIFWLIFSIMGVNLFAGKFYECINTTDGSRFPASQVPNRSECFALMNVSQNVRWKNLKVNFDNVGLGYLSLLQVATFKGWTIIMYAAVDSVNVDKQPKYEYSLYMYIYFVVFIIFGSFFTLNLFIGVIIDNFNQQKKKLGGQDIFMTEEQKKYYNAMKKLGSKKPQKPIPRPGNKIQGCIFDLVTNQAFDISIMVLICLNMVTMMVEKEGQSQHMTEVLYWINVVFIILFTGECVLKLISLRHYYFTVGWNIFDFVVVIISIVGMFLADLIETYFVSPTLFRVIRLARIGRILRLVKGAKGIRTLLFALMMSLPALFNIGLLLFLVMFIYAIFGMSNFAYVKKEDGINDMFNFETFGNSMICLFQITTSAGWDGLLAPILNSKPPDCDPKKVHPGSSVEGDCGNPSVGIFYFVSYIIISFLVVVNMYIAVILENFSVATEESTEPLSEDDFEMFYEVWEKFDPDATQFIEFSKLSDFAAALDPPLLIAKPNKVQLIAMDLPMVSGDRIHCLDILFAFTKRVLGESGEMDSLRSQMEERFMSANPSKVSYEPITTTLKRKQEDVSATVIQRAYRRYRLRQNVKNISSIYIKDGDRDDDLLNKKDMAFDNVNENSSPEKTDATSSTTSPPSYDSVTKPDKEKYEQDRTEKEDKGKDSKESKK
Assay type: cell-based

Compound | IC50
CCC1CN(CC(F)(F)F)CC2(CCN(C(=O)c3ccc(OC(C)C)c(C)c3)CC2)O1 (stereo not shown) [Compound 233] | < 2000 nM
COc1cc(C(=O)N2CCC3(CC2)CN(CC(F)(F)F)CC(c2ccccc2)O3)cc(F)c1OC(C)C (stereo not shown) [Compound 234] | < 2000 nM
CCOCC1CN(c2ncccn2)CC2(CCN(C(=O)c3ccc(OC(C)C)c(C)c3)CC2)O1 (stereo not shown) [Compound 235] | < 2000 nM
CCC1CN(c2ncccn2)CC2(CCN(C(=O)c3ccc(OC(C)C)c(C)c3)CC2)O1 (stereo not shown) [Compound 236] | < 2000 nM
COCC1CN(c2ncccn2)CC2(CCN(C(=O)c3ccc(C4(O)CCCCC4)cc3)CC2)O1 (stereo not shown) [Compound 237] | < 2000 nM
CCC1CN(c2ncccn2)CC2(CCN(C(=O)c3ccc(S(=O)(=O)C(C)C)c(C)c3)CC2)O1 (stereo not shown) [Compound 238] | 2000 to 5000 nM
CC#CCN1CC(CC)OC2(CCN(C(=O)c3ccc(OC(C)C)c(F)c3)CC2)C1 (stereo not shown) [Compound 239] | > 5000 nM
COCC1CN(c2ncccn2)CC2(CCN(C(=O)c3ccc(CC(C)(C)O)cc3)CC2)O1 (stereo not shown) [Compound 240] | > 5000 nM
CC(C)(O)c1ccc(C(=O)N2CCC3(CC2)CN(CC(F)F)CC(c2ccccc2)O3)cc1 (stereo not shown) [Compound 241] | 2000 to 5000 nM
CC#CCN1CC(CC)OC2(CCN(C(=O)c3ccc(OCC)c(C)c3)CC2)C1 (stereo not shown) [Compound 242] | 2000 to 5000 nM
CC(C)Oc1ccc(C(=O)N2CCC3(CC2)CN(CC(F)F)CC(c2ncco2)O3)cc1F (stereo not shown) [Compound 243] | < 2000 nM
CC(C)Oc1ccc(C(=O)N2CCC3(CC2)CN(CC(F)F)CC(c2ccc(F)cc2)O3)cc1F (stereo not shown) [Compound 244] | < 2000 nM
Cc1cc(C(=O)N2CCC3(CC2)CN(CC(F)(F)F)CC(c2ccccc2)O3)ccc1OC1COC1 (stereo not shown) [Compound 245] | < 2000 nM
Cc1nc(C(=O)N2CCC3(CC2)CN(CC(F)F)CC(c2ccccc2)O3)ccc1OC(C)C (stereo not shown) [Compound 246] | < 2000 nM
COc1cc(C(=O)N2CCC3(CC2)CN(CC(F)F)CC(c2ccc(F)cc2)O3)ccc1OC(C)(C)C (stereo not shown) [Compound 247] | 2000 to 5000 nM
CC#CCN1CC(CC)OC2(CCN(C(=O)c3ccc(OC(C)C)c(C)c3)CC2)C1 (stereo not shown) [Compound 248] | < 2000 nM
COCC1CN(CC(=O)C2CC2)CC2(CCN(C(=O)c3ccc(OC(C)C)c(C)c3)CC2)O1 (stereo not shown) [Compound 249] | 2000 to 5000 nM
CCN1CC(c2ncc(C)s2)OC2(CCN(C(=O)c3ccc(OC(C)C)c(C)c3)CC2)C1 (stereo not shown) [Compound 250] | < 2000 nM
Cc1cc(C(=O)N2CCC3(CC2)CN(CC(F)(F)F)CC(c2ccccc2)O3)ccc1C1COC1 (stereo not shown) [Compound 251] | < 2000 nM
COCC1CN(Cc2nccs2)CC2(CCN(C(=O)c3ccc(OC(C)C)c(C)c3)CC2)O1 (stereo not shown) [Compound 252] | 2000 to 5000 nM
COc1cc(C(=O)N2CCC3(CC2)CN(CC(F)F)CC(c2cccc(C)n2)O3)ccc1OC(C)C (stereo not shown) [Compound 253] | 2000 to 5000 nM
CCN1CC(COC)OC2(CCN(C(=O)c3ccc(OC(C)C)c(C)c3)CC2)C1 (stereo not shown) [Compound 254] | 2000 to 5000 nM
COCC1CN(C2COC2)CC2(CCN(C(=O)c3ccc(OC(C)C)c(C)c3)CC2)O1 (stereo not shown) [Compound 255] | > 5000 nM
COCN1CC(c2cccc(OC)n2)OC2(CCN(C(=O)c3ccc(OC(C)C)c(C)c3)CC2)C1 (stereo not shown) [Compound 256] | < 2000 nM
CC(C)(O)c1ccc(C(=O)N2CCC3(CC2)CN(CC(F)(F)F)CC(c2ccccc2)O3)cc1F (stereo not shown) [Compound 257] | < 2000 nM
COCC1CN(c2cccc(C(F)(F)F)c2)CC2(CCN(C(=O)c3ccc(OC(C)C)c(C)c3)CC2)O1 (stereo not shown) [Compound 258] | < 2000 nM
CCN1CC(c2ccc(F)cc2)OC2(CCN(C(=O)c3ccc(OC(C)C)c(F)c3)CC2)C1 (stereo not shown) [Compound 259] | < 2000 nM
COCC1CN(CC(F)(F)F)CC2(CCN(C(=O)c3ccc(OC(C)C)c(C)c3)CC2)O1 (stereo not shown) [Compound 260] | < 2000 nM

Compound | IC50
Cc1cccnc1C1CN(CC(F)F)CC2(CCN(C(=O)c3ccc(OC(C)C)c(F)c3)CC2)O1 (stereo not shown) [Compound 261] | < 2000 nM
CCC1CN(CC(=O)C(C)(C)C)CC2(CCN(C(=O)c3ccc(OC(C)C)c(C)c3)CC2)O1 (stereo not shown) [Compound 262] | < 2000 nM
CC(C)Oc1ccc(C(=O)N2CCC3(CC2)CN(CC(F)F)CC(c2ccn(C)n2)O3)cc1F (stereo not shown) [Compound 263] | < 2000 nM
COCN1CC(c2ncccn2)OC2(CCN(C(=O)c3ccc(C4(O)CCC4)cc3)CC2)C1 (stereo not shown) [Compound 264] | > 5000 nM
Cc1cccc(C2CN(CC(F)F)CC3(CCN(C(=O)c4ccc(S(=O)(=O)C(C)C)c(C)c4)CC3)O2)n1 (stereo not shown) [Compound 265] | 2000 to 5000 nM
CCC(=O)N1CC(c2ccccc2)OC2(CCN(C(=O)c3ccc(OC(C)C)c(C)c3)CC2)C1 (stereo not shown) [Compound 266] | 2000 to 5000 nM
COCC1CN(c2ncccn2)CC2(CCN(C(=O)c3ccc(C(C)(C)O)c(C)c3)CC2)O1 (stereo not shown) [Compound 267] | 2000 to 5000 nM
Cc1cnc(C2CN(C(C)(C)C)CC3(CCN(C(=O)c4ccc(OC(C)C)c(F)c4)CC3)O2)o1 (stereo not shown) [Compound 268] | 2000 to 5000 nM
CC(C)(C)S(=O)(=O)c1ccc(C(=O)N2CCC3(CC2)CN(CC(F)F)CC(c2ccc(F)cc2)O3)cc1 (stereo not shown) [Compound 269] | 2000 to 5000 nM
COCC1CN(C2CCOCC2)CC2(CCN(C(=O)c3ccc(OC(C)C)c(C)c3)CC2)O1 (stereo not shown) [Compound 270] | 2000 to 5000 nM
CCC1CN(c2ncccn2)CC2(CCN(C(=O)c3ccc(C4(O)CCCC4)c(F)c3)CC2)O1 (stereo not shown) [Compound 271] | < 2000 nM
CCOCC1CN(CC)CC2(CCN(C(=O)c3ccc(OC(C)C)c(C)c3)CC2)O1 (stereo not shown) [Compound 272] | > 5000 nM
CC(C)(O)COc1ccc(C(=O)N2CCC3(CC2)CN(CC(F)(F)F)CC(c2ccccc2)O3)cc1 (stereo not shown) [Compound 273] | 2000 to 5000 nM
COc1cc(C(=O)N2CCC3(CC2)CN(CC(F)F)CC(c2ccc(F)cc2)O3)ccc1OC(C)C (stereo not shown) [Compound 274] | < 2000 nM
CC(C)(O)c1ccc(C(=O)N2CCC3(CC2)CN(CC#N)CC(c2ccccc2)O3)cc1 (stereo not shown) [Compound 275] | > 5000 nM
COCC1CN(c2ncccn2)CC2(CCN(C(=O)c3ccc(OCCC(C)C)c(OC)c3)CC2)O1 (stereo not shown) [Compound 276] | < 2000 nM
CC#CCN1CC(CC)OC2(CCN(C(=O)c3ccc(OC(C)C)c(C)n3)CC2)C1 (stereo not shown) [Compound 277] | 2000 to 5000 nM
COc1cc(C(=O)N2CCC3(CC2)CN(CC(F)(F)F)CC(c2ccccc2)O3)ccc1OC(C)C (stereo not shown) [Compound 278] | < 2000 nM
O=C(c1ccc(S(=O)(=O)NC2CC2)cc1)N1CCC2(CC1)CN(CC(F)F)CC(c1ccc(F)cc1)O2 (stereo not shown) [Compound 280] | 2000 to 5000 nM
Cc1cc(C(=O)N2CCC3(CC2)CN(C(C)C)CC(c2ccccc2)O3)ccc1OC(C)C (stereo not shown) [Compound 281] | < 2000 nM
COCC1CN(c2ncccn2)CC2(CCN(C(=O)c3ccc(OC(C)C)c(C)n3)CC2)O1 (stereo not shown) [Compound 282] | < 2000 nM
Cc1cc(C(=O)N2CCC3(CC2)CN(CC#N)CC(c2ccccc2)O3)ccc1OC(C)C (stereo not shown) [Compound 283] | < 2000 nM
COCC1CN(c2ncccn2)CC2(CCN(C(=O)c3ccc(OC)c(C(F)(F)F)c3)CC2)O1 (stereo not shown) [Compound 284] | < 2000 nM
COCC1CN(C2CCC2)CC2(CCN(C(=O)c3ccc(OC(C)C)c(C)c3)CC2)O1 (stereo not shown) [Compound 285] | < 2000 nM
COCC1CN(c2ccccc2)CC2(CCN(C(=O)c3ccc(OC(C)C)c(C)c3)CC2)O1 (stereo not shown) [Compound 286] | < 2000 nM
COCC1CN(CC2CC2)CC2(CCN(C(=O)c3ccc(OC(C)C)c(C)c3)CC2)O1 (stereo not shown) [Compound 287] | < 2000 nM
CCC1CN(c2ccccn2)CC2(CCN(C(=O)c3ccc(C4(O)CCCC4)cc3)CC2)O1 (stereo not shown) [Compound 288] | < 2000 nM
